Read-outs that look alike come from different tables or passages of the source.

For data set [1] the following is noted: in toluene [12]; cited from earlier work.
The conditions of data set [2]: cited from earlier work.
Data set [3] can be described thus: Absorption spectra (λmax, molar absorption coefficient). Format: physicochemical. As to conditions: ethanol solutions. As for the experimental part: (§1) Absorption spectra were recorded on a Shimadzu UV-2100 spectrophotometer or with a Carry 50 Biospectrophotometer (Varian, Mulgrave, USA). Fluorescence spectra were measured with a Spex Fluorolog 3 spectrophotometer, with correction for the wavelength dependence system (RCA C31034 photomultiplier), or with a PerkinElmer LS 50 spectrofluorimeter. Transient absorption spectra were measured with an Applied Photophysics LKS 60 nanosecond laser flash photolysis kinetic spectrometer, using the third harmonic of a Spectra-Physics Quanta Ray GCR 130-01 Nd/YAG laser for excitation, a Hamamatsu 1P28 photomultiplier and a Hewlett-Packard Infinium oscilloscope (1 GS/s). Flash photolysis measurements were made in the presence of air and in argon saturated solutions. Photoacoustic calorimetry employed the same Nd/YAG laser, a home-made front-face photoacoustic cell with a 2.25 MHz Panametrics transducer (model 5676) and a Tektronix DSA 601 transient recorder. Room-temperature singlet-oxygen phosphorescence was measured at 1270 nm with a Hamamatsu R5509-42 photomultiplier, cooled to 193 K in a liquid nitrogen chamber (Products for Research model PC176TSCE005), following laser excitation of aerated solutions at 355 nm, using an adapted Applied Photophysics spectrometer. Singlet oxygen emission at 1270 nm was also monitored with a liquid nitrogen-cooled germanium detector (North Coast) coupled to a Tectronix Digitizing scope (TDS 520B), following sample excitation with 5 ns laser pulses of the third harmonic (355 nm) generated by a Q-switched Nd:YAG laser (Continuum Surelite II).
(§2) This is indicative of little aggregation between the molecules, which exist mostly as monomers at these concentrations in the solvents studied. Table 1 presents typical red and infrared molar absorption coefficients (εmax) and wavelength maxima. The same table also presents representative fluorescence quantum yields (ΦF) of Luzitins. The fluorescence quantum yields decrease of these molecules decrease in the presence of chlorine substituents, a fingerprint of the heavy atom effect expected for such molecules.

Data set [4] is described as follows: Fluorescence quantum yield. Format: physicochemical. As to conditions: ethanol. As for the experimental part:
The absorptions of both reference and sample solutions were matched at ca 0.2 at the excitation wavelength of 515.5 nm, and the solutions were diluted by a factor 10 before collecting the fluorescence. The fluorescence quantum yield was obtained from the ratio of the fluorescence bands of the sample vs the reference, multiplied by the fluorescence quantum yield of the reference, 0.012 according to [12], after correction for the difference of refractive indexes of ethanol and toluene.
as §2

Data set [5] is described as follows: Triplet lifetime by laser flash photolysis. Format: physicochemical. The settings on record: air-saturated ethanol. As for the experimental part:
as §1
The triplet-triplet absorption spectra and the triplet lifetimes of the photosensitisers (τT) were measured with the transient absorption spectra equipment described above, with excitation at 355 nm, where the solutions had absorbances between 0.25 and 0.30.
The triplet-triplet absorption spectra of the Luzitins measured in this work were in good agreement with that in the literature data for chlorins and bacteriochlorins. All triplet decays were clearly mono-exponential. […] Such values are consistent with diffusion limited energy transfer from the triplet state of the sensitizer to molecular oxygen through a charge-transfer interaction.

Data set [6] is described as follows: Singlet oxygen quantum yield and lifetime (1270 nm phosphorescence). Type of data set: physicochemical. The settings on record: air-saturated ethanol. As for the experimental part: as §1
Singlet oxygen quantum yields in ethanol were obtained using a procedure described by some of us, using phenalenone as reference. The literature value for the singlet oxygen quantum yield obtained with phenalenone in ethanol is ΦΔ=0.95 [38].
All the singlet oxygen emissions measured in aerated ethanol solutions are very well described by mono-exponential decays, with typical singlet oxygen lifetimes (τΔ). The ΦΔ values of Table 1 were obtained by the procedures described above and are representative of these photosensitisers.
An air-saturated solution of Luzitin-Cl2Hep in ethanol with an absorbance ca. 0.2 at 355 nm was excited in a 1 cm quartz cuvette by a pulsed Nd:YAG laser, and the singlet oxygen emission was followed at 1270 nm, using the equipment and methods previously described. The intensity of the singlet oxygen phosphorescence was studied as a function of the laser intensity. A similar study was made with phenalenone in ethanol, at a concentration matching the absorbance of Luzitin-Cl2Hep at 355 nm. […] Various laser energies were employed and from the slopes of the energy dependence of singlet oxygen emission and the value of ΦΔ=0.95 for phenalenone in this ethanol, we obtained ΦΔ=0.78 for Luzitin-Cl2Hep.

Data set [7] is described as follows: Photobleaching under 748 nm diode laser irradiation. Type of data set: physicochemical. The settings on record: 100 mW laser irradiation at 748 nm. From the text:
The irradiation of bacteriochlorins in the photobleaching experiments employed the 748 nm Lynx diode laser. For animal studies we employed a costumer-made Hamamatsu diode laser, type LA0873. S/N M070301, which delivered 140 mW at 748 nm. This diode laser was controlled by a ThorLabs 500 mA ACC/APC Laser Diode Controller and in-house electronics. The laser energies of this and the other higher-energy lasers employed in this work were regularly checked with an Ophir model AN/2E laser power meter.
Photobleaching experiments were conducted in PBS. PBS:methanol (50:50) and methanol solutions. The solutions were irradiated in a cuvette with an optical path of 1 cm and the Lynx diode laser. The initial absorption of the solutions was ca. 0.8. The mechanism of photobleaching was assessed with the irradiation of the sensitizer using the Hamamatsu diode laser at 80 mW. The sensitizer was irradiated in PBS and in the presence of ascorbic acid or azide.
The chemical stability of the compounds was studied exposing them to light, air, and pH changes. The most significant degradation occurs for aerated solutions irradiated by light of the appropriate wavelength. In such circumstances the photobleaching of the compounds follows a first-order rate and is proportional to the energy of the incident laser light. In general, it was also observed that the photobleaching rate increases with the amount of water present in the solution. Bennett reported the photoconversion of Foscan® (m-THPC) and of the analogous bacteriochlorin (m-THPB) in PBS:methanol (50:50). Scherz reported the photoconversion of Tookad® in acetone and Triton-X:PBS [3]. For the purpose of comparing the photostability of Luzitins with that of Foscan® and Tookad®, we present in Table 2 the half-lives (t1/2) of representative drugs described herein, together with those of Foscan and Tookad® normalized for a laser power of 100 mW.
Luzitin-FMet was dissolved in PBS:methanol (2:3), transferred to a 1 cm quartz cell and its absorption spectrum was registered, FIG. 6. The quartz cell was then placed in the beam of the 748 nm Lynx diode laser, previously unfocused to have a beam diameter coincident with the window of the quartz cell. The laser power measured under these conditions was 28.8 mW. Every 5 minutes the irradiation was interrupted and a new absorption spectrum was registered. This procedure was followed for 65 minutes. The photobleaching follows the kinetics of a first-order reaction in the time window of the experiment. […] Whereas the bacteriochlorin peak at 743 nm is reduced from an absorbance of 1.128 to 0.337, the absorption of the chlorin only increases from 0.114 to 0.151. Taking into consideration the molar absorption coefficients of the compounds at these wavelengths, it is clear that whereas 70% of the bacteriochlorin is destroyed during the irradiation, only a few percent of chlorin are formed.
The half-lives of other bacteriochlorins normalized 100 mW laser irradiation at 748 nm are presented in […], together with the literature data for the photodegradation of Foscan® and Tookad® normalized for the same light intensity. It was also observed that the half-live to Luzitin-Cl is increased by a factor of 30 when the PBS solution of the photosensitizer is saturated with Argon, which reduces the oxygen concentration in the solution.

The nature of data set [8]: n-octanol:water partition coefficient (shake-flask). Type of data set: physicochemical. As for the experimental part:
The n-octanol:water partition coefficients (CP) were measured using a minor modification of the shake-flask method described by some of us in the literature. The modification concerned the excitation of the absorption band ca 500 nm and the collection of the fluorescence in the red/IR region.

Data set [9] deals with human adenocarcinoma (HT29) cell line. The settings on record: HT29, irradiation of 25 J/cm^2 (US2003/6,569,846); read-out: dose causing 50% death rate; cited from earlier work.
The conditions of data set [10]: reference, in ethanol [38]; cited from earlier work.

Take `Clc1cccc(Cl)c1-c1c2nc(c(-c3c(Cl)cccc3Cl)c3ccc([nH]3)c(-c3c(Cl)cccc3Cl)c3nc(c(-c4c(Cl)cccc4Cl)c4ccc1[nH]4)CC3)CC2` [Cl2PhB, 5,10,15,20-tetrakis(2,6-dichlorophenyl)bacteriochlorin]: the “fluorescence quantum yield of the reference” value in data set [1] is recorded as 0.012.
As to `Oc1cccc(-c2c3nc(c(-c4cccc(O)c4)c4ccc([nH]4)c(-c4cccc(O)c4)c4nc(c(-c5cccc(O)c5)c5ccc2[nH]5)CC4)C=C3)c1` [Foscan®, 5,10,15,20-tetrakis(3-hydroxyphenyl)chlorin], the “t1/2 (half-life)” value in [2] (PBS:methanol, literature [46] normalized for a laser power of 100 mW) is reported as 8,582 sec.
In the case of `CCCCCCCNS(=O)(=O)c1ccc(Cl)c(-c2c3nc(c(-c4c(Cl)ccc(S(=O)(=O)NCCCCCCC)c4Cl)c4ccc([nH]4)c(-c4c(Cl)ccc(S(=O)(=O)NCCCCCCC)c4Cl)c4nc(c(-c5c(Cl)ccc(S(=O)(=O)NCCCCCCC)c5Cl)c5ccc2[nH]5)CC4)CC3)c1Cl` [Luzitin-Cl2Hep, 5,10,15,20-tetrakis(2,6-dichloro-3-N-heptylsulfamoylphenyl)bacteriochlorin], in [3], the εmax is listed as 75,000 M^−1 cm^−1 and the λmax was determined as 746 nm. In addition, in [4], the “ΦF (fluorescence quantum yield)” value was found to be 0.0082. For the same compound, the “τT (air) triplet lifetime” value in [5] stood at 295 nsec. In addition, in [6], the “τΔ (singlet oxygen lifetime)” value came out at 14.3 μsec. For the same compound, the “ΦΔ (singlet oxygen quantum yield)” value in [6] (phenalenone as reference) stood at 0.63. The “t1/2 (photobleaching half-life)” value in [7] (methanol) was 164,105 sec. Besides, in data set [8], the “log KOW (n-octanol:water partition coefficient)” value is recorded as over 4.
Regarding `O=S(=O)(O)c1ccc(F)c(-c2c3nc(c(-c4cc(S(=O)(=O)O)ccc4F)c4ccc([nH]4)c(-c4cc(S(=O)(=O)O)ccc4F)c4nc(c(-c5cc(S(=O)(=O)O)ccc5F)c5ccc2[nH]5)CC4)CC3)c1` [Luzitin-F, 5,10,15,20-tetrakis(2-fluoro-5-sulfonylphenyl)bacteriochlorin], the “t1/2 (photobleaching half-life)” value in data set [7] (PBS) was found to be 58 s.
In the case of `CN(C)S(=O)(=O)c1ccc(F)c(-c2c3nc(c(-c4cc(S(=O)(=O)N(C)C)ccc4F)c4ccc([nH]4)c(-c4cc(S(=O)(=O)N(C)C)ccc4F)c4nc(c(-c5cc(S(=O)(=O)N(C)C)ccc5F)c5ccc2[nH]5)CC4)CC3)c1` [Luzitin-FMet2, 5,10,15,20-tetrakis(2-fluoro-5-N,N-dimethysulfamoylphenyl)bacteriochlorin], the λmax in data set [3] was found to be 742.5 nm. Moreover, the εmax in [3] (corrected for the chlorin content) is on record as 78,000^d) M^−1 cm^−1. Moreover, the “ΦF (fluorescence quantum yield)” value in data set [4] stood at 0.0585. Besides, in data set [7] (methanol), the “t1/2 (photobleaching half-life)” value is 4,352 sec. Moreover, the “log KOW (n-octanol:water partition coefficient)” value in [8] is reported as over 4.
Turning to `CC[C@H]1c2cc3[n-]c4c(c3C)C(=O)[C@H](C(=O)OC)c4c3nc(cc4[n-]c(cc(n2)[C@@H]1C)c(C(C)=O)c4C)[C@@H](C)[C@@H]3CCC(=O)O.[Pd+2]` [Tookad®], in [9], the IC50 was 48 µM. Moreover, the “t1/2 (half-life)” value in data set [2] (buffer) is 1.56 s.
As for `O=C1C=Cc2cccc3cccc1c23` [phenalenone], in data set [10], the “ΦΔ (singlet oxygen quantum yield)” value was 0.95.

The values above are taken from patent publication US9670217B2, “Process for preparing chlorins and their pharmaceutical uses” (UNIVERSIDADE DE COIMBRA, priority 2008, dated 2017).
